Key:
Type in all cases: cell-based
PC3 and RWPE1 cells [1] = experiment: Cell viability by MTT assay; conditions: MLN8237 0.01 uM, 24, 48 and 72 hr
Protocol: (§1) FIG. 8. […] Western blot analysis of nuclear extracts from PC3 cells treated with MLN8237 (0.01 uM). Y-tubulin staining was used as the loading control. […] PC3 and RWPE1 cells were treated with MLN8237 (0.01 uM) MLN8237 for 24, 48, and 72 hr and cell viability was measured by MTT Assay.

PC3 and RWPE1 cells [2] = experiment: Immunofluorescence analysis of cells treated with MLN8237; conditions: MLN8237 0.01 uM, 24 hr
PC3 cells [3] = experiment: Cell proliferation by MTS assay, MLN8237 with LIMK1 shRNA or control shRNA
Protocol: 10 cm dishes were transiently transfected with 6 ug of LIMK1 shRNA or control shRNA. 24 hrs post transfection, untransfected PC3 cells along with the transfected PC3 cells were seeded in 96 well plates in triplicate (5,000 cells/well). 14 hrs after seeding, media was changed to MLN8237 containing media, at concentrations of 0.001 uM, 0.01 uM, and 0.1 uM. After 24 and 48 hours of inhibitor treatment, cell proliferation was measured using MTS assay. MTS reagent was added to each well and allowed to incubate for 3 hrs at 37° C. before reading absorbances. Absorbances were compared against controls.

PC3 cells [4] = experiment: Western blot analysis of nuclear extracts for phospho-Histone H3; conditions: MLN8237 0.01 uM, nuclear extracts from PC3 cells
Protocol: as §1

PC3 cells [5] = experiment: Western blot of LIMK1 and pAurKA after LIMK1 shRNA transfection; conditions: LIMK1 shRNA versus control shRNA
Protocol: FIG. 6 PC3 cells were transfected with LIMK1 shRNA or control shRNA and the levels of LIMK1 and pAurKA were detected by western blotting using anti-LIMK1 or anti phospho-AurKA antibodies. GAPDH was used as the loading control. The ratio of pAurKA to GAPDH levels was determined by densitometry (left panel).

PC3 cells [6] = experiment: Immunofluorescence of spindle structure after LIMK1 shRNA transfection, spindle abnormalities counted
From the text: FIG. 7 A: PC3 cells were transfected with either LIMK1 or control shRNA. In control shRNA transfected cells, distinct localization of pAurKA (green) at the spindle poles (red) could be noted. […] PC3 cells were transfected with either LIMK1 or control shRNA and spindle abnormalities were quantified by counting 50 cells per treatment.

| Molecule | cell survival (cell viability, MTT) (PC3 and RWPE1 cells [1]) | localization of pAurKA and spindle morphology (alpha-tubulin) (PC3 and RWPE1 cells [2]) | localization of pLIMK1 and centrin (PC3 and RWPE1 cells [2]) | sensitivity of untransfected PC3 cells to MLN8237 (MTS) (PC3 cells [3]; 0.001, 0.01 and 0.1 uM, 24 and 48 hr) | levels of phospho-Histone H3 (mitotic arrest) (PC3 cells [4]) | number of viable cells compared to control shRNA (PC3 cells [3]; 0.001 uM MLN8237, 48 hrs, PC3 cells) [%] | number of viable cells compared to control shRNA (PC3 cells [3]; 0.1 uM MLN8237, 48 hrs, PC3 cells) [%] | sensitivity to MLN8237 versus control shRNA transfected cells (PC3 cells [3]; PC3 cells, MLN8237 0.001-0.1 uM) | sensitivity to AurKA inhibitor versus untransfected PC3 cells treated only with AurKA inhibitor (PC3 cells [3]; normalised to untransfected PC3 cells treated with vehicle (DMSO), 24 and 48 hr) | level of phosphorylated AurKA (PC3 cells [5]) | number of abnormal spindles (PC3 cells [6]; 50 cells counted per treatment) | spindle structure (alpha-tubulin staining) (PC3 cells [6]; LIMK1 shRNA versus control shRNA) |
| --- | --- | --- | --- | --- | --- | --- | --- | --- | --- | --- | --- | --- |
| COc1cc(Nc2ncc3c(n2)-c2ccc(Cl)cc2C(c2c(F)cccc2OC)=NC3)ccc1C(=O)O [MLN8237] | Decreased Cell Survival | mislocalization of pAurKA (green) and improper spindle morphology | diffused staining and mislocalization of pLIMK1 (green) and centrin (red) in the nucleus | most sensitive to 0.1 uM MLN8237 at 48 hrs | Increased the Levels of phospho-Histone H3 | – | – | – | – | – | – | – |
| AAGGACAAGAGGCTCAACTTCATCACTGA (listed as DNA, chemistry not given here) [LIMK1 shRNA, interfering RNA (shRNA) targeting LIMK1] | – | – | – | – | – | 75 | 83 | more sensitivity to MLN8237 | increased the sensitivity of the cells to AurKA inhibitor at all concentrations | decreased the level of phosphorylated AurkA | increased the number of abnormal spindles | disorganized spindle structure |
